Data on 1 compound can be found in patent US20120114583A1, “USE OF DIHYDROQUERCETIN AND AT LEAST ONE AMINO ACID TO POSITIVELY INFLUENCE THE NATURAL PIGMENTATION PROCESS” (Henkel AG & Co. KGaA, priority 2009, published 2012).

Assay type in all cases: cell-based
In one test the test system is ckit. In words: Differential gene expression of ckit by quantitative RT-PCR in organotypical hair follicle cell cultures. The settings on record: for ckit expression, Mean: 48 h, dermal papilla cell 3D cultures, untreated control = 1. The text has this:
(§1) The ligands involved in melanogenesis, such as SCF or alpha-MSH (melanocyte stimulating hormone alpha) bind to different receptors, through which the corresponding signal is transmitted into the cell interior. The receptor for SCF is ckit, the receptor for alpha-MSH is MCR-1 (melanocortin receptor 1). Substances that bring about a change in the expression of MCR-1 and/or ckit can influence melanogenesis. If an induction (up-regulation or stimulation) of the gene expression of the corresponding receptors occurs, melanogenesis is assumed to be stimulated. Differential gene expression was determined by means of quantitative RT-PCR. After preparing three-dimensional organotypical hair follicle cell cultures from dermal papilla cells on microcarriers, they were incubated for 48 h with dihydroquercetin in two different concentrations. In order to perform PCR the RNA was first isolated from the organotypical cell cultures with the aid of an RNeasy Mini Kit from Qiagen and transcribed into cDNA by reverse transcription. In the subsequent PCR reaction, which is performed for each gene with the aid of gene-specific primers and which serves to amplify the required gene sections, the formation of PCR products is detected online via a fluorescence signal. The fluorescence signal is proportional to the amount of PCR product formed. The stronger the expression of a particular gene, the greater the amount of PCR product formed and the higher the fluorescence signal. To quantify the gene expression the untreated control is set to 1 and the expression of the gene to be determined is referenced thereto (x-times expression). […] Values greater than or equal to the 1.5 times expression or less than or equal to the 0.7 times expression of the untreated control are classed as being expressed in a tangentially differential manner.

In test [1] the test system is MCR1 (melanocortin receptor 1). The test is described as follows: Differential gene expression of MCR1 by quantitative RT-PCR in organotypical hair follicle cell cultures. The settings on record: for MCR1 expression, Mean: 48 h, dermal papilla cell 3D cultures, untreated control = 1.
Description: as §1

The subject of the next test is gp100. In words: Differential gene expression of gp100 by quantitative RT-PCR in organotypical hair follicle cell cultures. The settings on record: for gp100 expression, Mean: 48 h, dermal papilla cell 3D cultures, untreated control = 1. As to the method: Gp 100 is a protein that occurs in the membrane of melanosomes and stabilizes them. Since more melanin is produced in the cells following application of substances that positively influence melanogenesis, an increase in the melanosomes necessary for transport also occurs. A substance that induces the gene expression of gp100 is therefore a pigmentation-stimulating active ingredient. Differential gene expression was determined by means of quantitative RT-PCR. After preparing three-dimensional organotypical hair follicle cell cultures from dermal papilla cells on microcarriers, they were incubated for 48 h with dihydroquercetin in two different concentrations. In order to perform PCR the RNA was first isolated from the organotypical cell cultures with the aid of an RNeasy Mini Kit from Qiagen and transcribed into cDNA by reverse transcription. In the subsequent PCR reaction, which is performed for each gene with the aid of gene-specific primers and which serves to amplify the required gene sections, the formation of PCR products is detected online via a fluorescence signal. The fluorescence signal is proportional to the amount of PCR product formed. The stronger the expression of a particular gene, the greater the amount of PCR product formed and the higher the fluorescence signal. To quantify the gene expression the untreated control is set to 1 and the expression of the gene to be determined is referenced thereto (x-times expression). […] Values greater than or equal to the 1.5 times expression or less than or equal to the 0.7 times expression of the untreated control are classed as being expressed in a tangentially differential manner.

For test [2], the system named is hair follicle equivalents. The test is described as follows: Melanin content in hair follicle equivalents. The settings on record: for Melanin content d4 Mean: day 4; for Melanin content d7 Mean: day 7, untreated control 181. As to the method: In order to assess the melanin content, three-dimensional organotypical hair follicle cell cultures prepared from dermal papilla cells, hair follicle melanocytes and outer root sheath keratinocytes were treated with dihydroquercetin (10 μM and 100 μM) for 7 days. Untreated cell cultures served as a control. After 4 and 7 days respectively, the hair follicle equivalents were homogenized and the melanin extracted with NaOH (1M)+10% DMSO at 100° C. for 45 min. Aliquots of the specimens were then transferred to a 96-well plate and the extinction was measured at 492 nm. The rise in the melanin content from day 0 to day 7 was evaluated. All values were referenced to the untreated control on day 7 (=100%).

Take `O=C1c2c(O)cc(O)cc2OC(c2ccc(O)c(O)c2)C1O` (stereo not drawn) [Dihydroquercetin, 3,3′,4′,5,7-pentahydroxyflavanone]: the “ckit expression, Mean” value turned out to be 1.32 x-times expression in the test on ckit (10 μM) and 3.55 x-times expression in the test with ckit (100 μM). Moreover, the “ckit expression (in words)” value in the test with ckit (100 μM) is reported as “induced”. Also, the “MCR1 expression, Mean” value in test [1] (10 μM) is recorded as 2.56 x-times expression; in test [1] (100 μM), 5.17 x-times expression. Further, the “MCR1 expression (in words)” value in test [1] (10 μM, significantly differential = >= 1.8 times or <= 0.5 times untreated control) is given as “expressed in a significantly differential manner”; in test [1] (100 μM), “induced”. The “gp100 expression, Mean” value with gp100 (10 μM) worked out at 0.89 x-times expression; in the test on gp100 (100 μM), 3.48 x-times expression. Also, the “gp100 expression (in words)” value with gp100 (100 μM) was “induced”. Besides, the “Melanin content d4 Mean” value in test [2] (10 μM) and in test [2] (100 μM) was 100% each time. In addition, the “Melanin content d7 Mean” value in test [2] (10 μM) is reported as 254%; in test [2] (100 μM), 161%. Also, the “melanin synthesis in comparison to the control (in words)” value in test [2] (both concentration levels tested (10 μM and 100 μM)) is given as “increased markedly”.
